Measurements reported in patent US8986696B2, “Trans-capsular administration of p38 map kinase inhibitors into orthopedic joints” (DePuy Mitek, Inc., priority 2007, dated 2015).
Where two headings read alike, the source gives them in different places.

Legend:
[1] = test system: IL-1β-stimulated NO production, bovine chondrocyte pellets / ARC tissues; assay: chondrocyte pellet culture model: total nitrite/nitrate (NO); format: cell-based; conditions: for NO production: 10 ng/ml IL-1β
From the text: (§1) Calf articular cartilage was obtained from the knee joints of eight to twelve month old animals and was processed within twenty-four hours after sacrifice. After removal of muscle and ligament, the cartilage was kept moist using phosphate buffer solution (PBS) to prevent tissue dehydration, and was aseptically peeled off from subchondral bone with a scalpel, and the cartilage pieces were further minced into smaller pieces (˜0.3-0.5×˜0.2-0.5 cm cubes). […] Chondrocytes were then enzymatically isolated from the tissue by incubation for overnight at 37° C. with gentle agitation in 0.2% collagenase in Dulbecco's modified eagle media (DMEM). After removal of tissue debris by filtration through cell strainer and the residual collagenase by 3× wash in PBS, cells were finally resuspended at a density of 2.5×10^6 cells/ml in chondrocyte medium. A 1 ml aliquot of the cell suspension was dispensed into either a 15 ml Falcon centrifuge tube or a 96 deep-well plate and centrifuged at 2000×g for five minutes. The chondrocyte pellets were incubated at 37° C. in a humidified atmosphere of 5% CO2 for two to three weeks with a medium change every other day.
(§2) As an alternative to using calf articular cartilage, a commercial Alginate Recovered Chondrocytes (ARC) system was also used (Articular Engineering, LLC (Northbrook, Ill.)). Use of the commercial system cut down on labor and time in producing chondrocyte pellet. This system produced cartilaginous tissue in vitro using bovine chondrocytes. The first step consisted of culturing chondrocytes in alginate under conditions optimal for the formation of a cell-associated matrix (CM). The second step allowed these cells with their CM, after recovery, to rapidly form and become integrated into a solid mass of cartilage on a porous insert within two weeks. This tissue is rich in cells surrounded by a cell-associated matrix that is degraded rapidly when the cells are exposed to IL-1. ARC tissues in 3 mm punches at delivery were first dispensed into a 96 deep-well plate, one punch per well, for compound treatment. The subsequent procedures were the same as those used for the chondrocyte pellets.
(§3) Chondrocyte pellets were washed once with 1 ml of Chondrocyte Stimulation Medium and equilibrated in the same medium at room temperature for fifteen to thirty minutes. Compounds were dissolved in H2O, Ethanol or dimethyl sulfoxide (DMSO) (10^−2 M) according to suppliers' instructions and further diluted with Chondrocyte Stimulation Medium to the required concentrations. DMSO concentrations in the culture media should not exceed 1%; this concentration of DMSO has no effect on cartilage proteoglycan metabolism in response to cytokines.
(§4) The pellets were first treated with compounds at desired concentrations at 37° C. for one hour and then incubated for three to five days in the absence or presence of 10 ng/ml of IL-1β. At the end of the incubation, media and pellets were harvested and frozen for further analysis. Pellets were also fixed as needed in 4% (w/v) paraformaldehyde in PBS for histology analysis.
Nitrate/Nitrite levels were measured using the Griess reaction (Green L. C. et al., “Analysis of Nitrate, Nitrite, and [15N]nitrate in Biological Fluids,” Anal. Biochem. 126: 131-138 (1982)) with aNitrate/Nitrite Colorimetric Assay Kit (Cayman Chemicals), the contents of which are incorporated herein by reference. The assay involved a simple two-step process. The first step involved conversion of nitrate in 50 μl of culture medium to nitrite utilizing nitrate reductase in a reaction volume of 100 μl at room temperature for two hours. The second step involved the addition of 50 μl of both Griess Reagent 1 and 2, which converted nitrite into a deep purple azo compound in ten minutes. Photometric measurement of the absorbance at 540 or 550 nm due to this azo chromophore accurately determined nitrite concentration. […]

[2] = test system: IL-1β-stimulated PGE2 synthesis, bovine chondrocyte pellets / ARC tissues; assay: chondrocyte pellet culture model: PGE2; format: cell-based; conditions: for PGE2 synthesis: 10 ng/ml IL-1β
From the text: as §1, §2, §3, §4
Prostaglandin E2 (PGE2) was measured with a STAT-Prostaglandin E2 EIA ELISA kit (Cayman Biochemicals). This assay is based on the competition between PGE2 from 50 μl samples and a PGE2-alkaline phosphatase conjugate for a limited amount of PGE2 monoclonal antibody in a reaction volume of 150 μl at room temperature for one hour. The antibody-PGE2 complex bound to a goat polyclonal anti-mouse IgG that had been previously attached to the well. After washing to remove any unbound reagents, para-nitrophenyl phosphate (pNPP) was added to the well. The product of this enzymatic reaction absorbs strongly at 412 nm. Because of the large range in response to IL-1β and other cytokines, PGE2 values were converted to log scale prior to doing t-tests.

[3] = test system: rabbit anterior cruciate ligament transection (ACLT) model of osteoarthritis; assay: ACLT model, therapeutic dosing regimen (Example IX); format: in vivo; conditions: for Trochlear Groove Erosion of Cartilage / Tibial Plateau Presence of Clefts (Lateral) / Tibial Plateau Presence of Clefts (Medial) / Trochlear Groove Thickening / Femoral Condyle Presence of Clefts / Femoral Condyle % Surface Area Erosion (Lateral) / Femoral Condyle % Surface Area Erosion (Medial) / Tibial Plateau % Surface Area Erosion (Lateral) / Tibial Plateau % Surface Area Erosion (Medial) / Tibial Plateau # of Osteophytes (Lateral) / Tibial Plateau # of Osteophytes (Medial) / Trochlear Groove # of Osteophytes / Trochlear Groove Osteophyte Size / Femoral Condyle Depth of Erosion (Lateral) / Femoral Condyle Depth of Erosion (Medial) / Tibial Plateau Depth of Erosion (Lateral) / Tibial Plateau Depth of Erosion (Medial) / Combination Scores: All Trochlear Groove Effects / Combination Scores: All Condylar Effects / Combination Scores: All Tibial Plateau Effects / Combination Scores: All Cartilage Effects / Combination Scores: Total Score: Therapeutic Dosing Regimen; for Trochlear Groove Erosion of Cartilage / Tibial Plateau Presence of Clefts (Lateral) / Tibial Plateau Presence of Clefts (Medial) / Trochlear Groove Thickening / Femoral Condyle Presence of Clefts / Femoral Condyle % Surface Area Erosion (Lateral) / Femoral Condyle % Surface Area Erosion (Medial) / Tibial Plateau % Surface Area Erosion (Lateral) / Tibial Plateau % Surface Area Erosion (Medial) / Tibial Plateau # of Osteophytes (Lateral) / Tibial Plateau # of Osteophytes (Medial) / Trochlear Groove # of Osteophytes / Trochlear Groove Osteophyte Size / Femoral Condyle Depth of Erosion (Lateral) / Femoral Condyle Depth of Erosion (Medial) / Tibial Plateau Depth of Erosion (Lateral) / Tibial Plateau Depth of Erosion (Medial): mean gross score; for Trochlear Groove Erosion of Cartilage: 0 = 0, 1 < 25%, 2 = 25-50%, 3 > 50%; for Tibial Plateau Presence of Clefts (Lateral) / Tibial Plateau Presence of Clefts (Medial): 0 = Absent, 1 = Present; for Trochlear Groove Thickening: 0 = Normal, 1 = Thickened Areas; for Femoral Condyle Presence of Clefts: 0 = absent, 1 = unicondylar, 2 = both condyles; for Femoral Condyle % Surface Area Erosion (Lateral) / Femoral Condyle % Surface Area Erosion (Medial) / Tibial Plateau % Surface Area Erosion (Lateral) / Tibial Plateau % Surface Area Erosion (Medial): scale 0-5; for Tibial Plateau # of Osteophytes (Lateral) / Tibial Plateau # of Osteophytes (Medial) / Trochlear Groove # of Osteophytes / Trochlear Groove Osteophyte Size: scale 0 = 0; for Tibial Plateau # of Osteophytes (Lateral) / Tibial Plateau # of Osteophytes (Medial) / Trochlear Groove # of Osteophytes: 1 = 1, 2 = 2, 3 ≧ 2; for Trochlear Groove Osteophyte Size: 1 ≦ 1 mm, 2 = 1-2 mm, 3 > 2 mm; for Femoral Condyle Depth of Erosion (Lateral) / Femoral Condyle Depth of Erosion (Medial) / Tibial Plateau Depth of Erosion (Lateral) / Tibial Plateau Depth of Erosion (Medial): scale 0 = no damage to 3 = severe; for Combination Scores: All Trochlear Groove Effects / Combination Scores: All Condylar Effects / Combination Scores: All Tibial Plateau Effects / Combination Scores: All Cartilage Effects / Combination Scores: Total Score: mean; for Combination Scores: All Trochlear Groove Effects: 0-10, 10 = max damage; for Combination Scores: All Condylar Effects: 0-18, 18 = max damage; for Combination Scores: All Tibial Plateau Effects: 0-24, 24 = max damage; for Combination Scores: All Cartilage Effects: 0-40, 40 = max damage; for Combination Scores: Total Score: 0-52, 52 = max damage
Method: 130 Female New Zealand white rabbits underwent ACLT on the right knee. Intra-articular injections were administered to the operated knee once per week for five weeks beginning either one or six weeks after the ACLT. All animals were euthanized one week after the administration of the fifth injection. Gross observations were made on the knee joints according to a predetermined grading scale. The stifle joints were removed. Samples were preserved in 10% neutral buffered formalin. The stifle joints were photographed using high-resolution photography.
The ACLT was performed according to the ACLT model discussed above. Animals were group housed in pens on the floor and left untreated for six weeks to allow osteoarthritis to develop. Then, once weekly for five weeks, intra-articular injections were administered. One week following the last injection, the animals were sacrificed. The total in-life portion of this regimen was eleven weeks post-ACLT.
The study design consisted of an n=10 per group. A total of 160 μl was injected at each administration.
At the time of sacrifice the following parameters were evaluated grossly (the scale follows in parenthesis):
Each parameter was given a score. The combination of all parameters gave a Total Score (0-52). Additionally, combinations of the three subsets of data yielded scores for All Trochlear Groove Effects (0-10), All Condylar Effects (0-18) and All Tibial Plateau Effects (0-24). Lastly, an […] was obtained. The score for […] ranges from 0 to 40. The grades that compose this parameter are trochlear groove thickness and erosion, all the grades in All Condylar Effects, and all grades listed under Tibial Plateau. A higher score indicates more damage to the joint. A lower score indicates less damage or more cartilage preservation in the joint. Individual results for each parameter assessed were tabulated.

[4] = diacerein at 5.4 μM, rhein at 0.35 μM

Structure (SMILES)	Trochlear Groove Erosion of Cartilage [3]	Tibial Plateau Presence of Clefts (Lateral) [3]	Tibial Plateau Presence of Clefts (Medial) [3]	Trochlear Groove Thickening [3]	Femoral Condyle Presence of Clefts [3]	Femoral Condyle % Surface Area Erosion (Lateral) [3]	Femoral Condyle % Surface Area Erosion (Medial) [3]	Tibial Plateau % Surface Area Erosion (Lateral) [3]	Tibial Plateau % Surface Area Erosion (Medial) [3]	Tibial Plateau # of Osteophytes (Lateral) [3]	Tibial Plateau # of Osteophytes (Medial) [3]	Trochlear Groove # of Osteophytes [3]	Trochlear Groove Osteophyte Size [3]	Femoral Condyle Depth of Erosion (Lateral) [3]	Femoral Condyle Depth of Erosion (Medial) [3]	Tibial Plateau Depth of Erosion (Lateral) [3]	Tibial Plateau Depth of Erosion (Medial) [3]	Combination Scores: All Trochlear Groove Effects [3]	Combination Scores: All Condylar Effects [3]	Combination Scores: All Tibial Plateau Effects [3]	other results
C[C@H](Nc1nccc(-c2c(-c3ccc(F)cc3)nc3nc(N)ccn23)n1)c1ccccc1 [JNJ 7583979 (RWJ 351958)]																					NO production ([1]; ARC): significantly inhibited; PGE2 synthesis ([2]; ARC): significantly inhibited
OCCC#Cc1nc(-c2ccc(F)cc2)c(-c2ccncc2)n1CCCc1ccccc1 [JNJ 3026582 (RWJ 67657), 4-[4-(4-fluorophenyl)-1-(3-phenylpropyl)-5-(4-pyridinyl)-1H-imidazol-2-yl]-3-butyn-1-ol]	1.9	0	0	0.3	0	2.4	0.7	1.3	0.4	0.9	1.4	2.9	2.9	1.7	0.8	0.9	0.2	8.0	5.6	5.3	Combination Scores: All Cartilage Effects [3]: 10.8; Combination Scores: Total Score [3]: 18.9
CC(C(=O)O)c1ccc(C(=O)c2cccs2)cc1 (stereo not drawn) [Suprofen, reference compound]	1.9	0	0	0	0	1.3	0.3	1.6	0	0.8	1.6	3.0	3.0	1.3	0.2	1.4	0	7.9	3.0	5.4	Combination Scores: All Cartilage Effects [3]: 7.9; Combination Scores: Total Score [3]: 16.3; All Cartilage Effects, mean score ([3]; therapeutic dosing regimen): 7.9+1.5; all condylar effects, mean score ([3]; therapeutic dosing regimen): 3.0 ± 1.0; depth of the erosion on the lateral femoral condyle, mean score ([3]; therapeutic dosing regimen): 1.3 ± 0.4; depth of the erosion on the medial femoral condyle, mean score ([3]; therapeutic dosing regimen): 0.2 ± 0.1; percent surface area erosion of the lateral femoral condyle, mean score ([3]; therapeutic dosing regimen): 1.3 ± 0.4; percent surface area erosion of the medial femoral condyle, mean score ([3]; therapeutic dosing regimen): 0.3 ± 0.2
CC(=O)Oc1cccc2c1C(=O)c1c(OC(C)=O)cc(C(=O)O)cc1C2=O [Diacerein, reference compound]																					NO production [1, 4]: significantly inhibited; PGE2 synthesis [2, 4]: no effect
CC(=O)N1CCN(c2c(-c3ccncc3)c(-c3ccc(F)cc3)c(C#N)n2C)CC1 [JNJ 17089540 (RWJ 669307)]	1.6	0	0	0	0	1.1	0.4	1.4	0	0.7	1.5	3.0	3.0	1.1	0.2	1.2	0	7.6	2.8	4.8	IC50 ([1]; Pellet Assay, read-out: NO Inhibition IC50): 4.9 µM; IC50 ([1]; bovine ARC, 7.5 ng/ml IL-1β, five days, read-out: NO IC50): 4.92 µM; IC50 ([2]; Pellet Assay, read-out: PGE2 Inhibition IC50): 29.6 µM; IC50 ([2]; bovine ARC, 7.5 ng/ml IL-1β, five days, read-out: PGE2 IC50): 29.6 µM; Combination Scores: All Cartilage Effects [3]: 7.0; Combination Scores: Total Score [3]: 15.2; All Cartilage Effects, mean score ([3]; therapeutic dosing regimen): 7.0+1.0; all condylar effects, mean score ([3]; therapeutic dosing regimen): 2.8 ± 0.6; depth of the erosion on the lateral femoral condyle, mean score ([3]; therapeutic dosing regimen): 1.1 ± 0.4; depth of the erosion on the medial femoral condyle, mean score ([3]; therapeutic dosing regimen): 0.2 ± 0.1; percent surface area erosion of the lateral femoral condyle, mean score ([3]; therapeutic dosing regimen): 1.1 ± 0.4; percent surface area erosion of the medial femoral condyle, mean score ([3]; therapeutic dosing regimen): 0.4 ± 0.2; total score, mean ([3]; therapeutic dosing regimen): 15.2 ± 1.2
